Data from US4571403A, “Antianginal medicated compound” (Institut Organicheskoi Khimii Imeni N.D. Zelinskogo …, priority 1984, dated 1986).
“Also recorded” adds a separate entry of the source.

How the values were obtained:
blood flow in aorta = assay: volumetric blood flow in the ascending aortic arch, anesthetized cats and dogs; assay type: in vivo; details: 200-500 mg/kg intravenously
Excerpt: In experiments on cats and dogs under the general anesthesia conditions the volumetric flow rate of blood flow in the ascending part of the aortic arch has been recorded by the electromagnetic method using an electromagnetic blood flow meter and vessel sensors of appropriate size. On the basis of analysis of the phase curve of the blood flow, the main characteristics of heart activity and hemodynamics have been calculated. […] The averaged data of analysis of phase curves of the blood flow in cat's aorta under general anesthesia conditions (8 tests) are given in the Table hereinbelow.

cardio-vascular effects = assay: overall cardiovascular effects / conclusions of the tests; details: in vivo
Excerpt: The results of the above-described tests allow the following conclusions characterizing the properties of the medicated compound according to the present invention.

acute toxicity on rats = details: rat, in vivo
Excerpt: (§1) The acute toxicity of the preparation according to the present invention has been studied on mice and rats.

mice = assay: acute toxicity on mice; assay type: in vivo
Excerpt: as §1

acute toxicity on mice = assay type: in vivo; details: mouse, in vivo
Excerpt: as §1

solubility in water = assay type: physicochemical; details: white crystalline powder
[1] = system: vessels of heart, kidney and limbs; assay: resistogram of vessels of heart, kidney and limbs; assay type: in vivo
Excerpt: To find out the participance of the vascular factor in redistribution of regional blood flow, resistogram of vessels of heart, kidney and limbs has been recorded. […] The effect of the preparation on the heart activity and basic characteristics of hemodynamics has been also studied.

With `CN1C(=O)N(C)C2C1N(C)C(=O)N2C` (stereo not drawn) [the preparation, 2,4,6,8-tetramethyl-2,4,6,8-tetraazobicyclo-/3,3,0/-octanedione-3,7] the “duration of increased blood flow in aorta” value (blood flow in aorta) was 30 to 40 min, the “increase of blood flow in aorta” value (blood flow in aorta) was 50-70% and the tachycardia (blood flow in aorta) was “uncertainly pronounced tachycardia”. For the same compound, the arterial pressure (cardio-vascular effects) was “no substantial change of arterial pressure”, the “colateral blood flow in deep (endocardial) layers of myocardium” value (cardio-vascular effects) was “contributes to the development of the colateral blood flow in deep (endocardial) layers of myocardium” and the “contractibility of myocardium (inotropic effect)” value (cardio-vascular effects) was “positive inotropic effect; also recorded: increases contractibility of myocardium”. For the same compound, the “frequency of heart contractions” value (cardio-vascular effects) was “without affecting the frequency of heart contractions”, the “functional state of the ischemic centre” value (cardio-vascular effects) was “capable of improving functional state of the ischemic centre; also recorded: capable of improve the functional state of the ischemic centre” and the “lactate in the blood outflowing from the ischemic zone” value (cardio-vascular effects) was “lowering the content of lactate in the blood outflowing from the ischemic zone”. The “sympathetic tonus of heart and vessels” value (cardio-vascular effects) was “capable of inhibiting the sympathetic tonus of heart and vessels”, the “vascular component of pain reactions” value (cardio-vascular effects) was “capable of inhibiting the sympathetic tonus of heart and vessels, as well as vascular components of pain reactions; also recorded: suppresses the vascular component of pain reactions” and the “volumetric rate of total coronary blood flow” value (cardio-vascular effects) was “increases the volumetric rate of total coronary blood flow”. The LD50 (acute toxicity on rats) was 3450 mg/kg, the LD50 (mice) was 3,800 mg/kg of the body weight and the LD50 (acute toxicity on mice) was 3800 mg/kg. For the same compound, the solubility in water (solubility in water) was “well soluble in water”, the tension of vessels ([1]; heart, kidney and limbs) was “monodirectionally lowers tension of all vessels” and the “resistance of coronary vessels versus peripheral vessels” value ([1]; in vivo) was “lowered to a greater extent than that of peripheral vessels”.
